Experimental data taken from paper PMC5625151 (Pharmacology Research & Perspectives, 2017).
Entries after “also recorded” stand apart in the source; their conditions may differ.

Key:
PC12 cells = experiment: PC12 toxicity assay; assay type: cell-based; details: 100 μmol/L, 72 h, absence of NGF
[1] = tested on: NGF-dependent PC12 cell differentiation; experiment: PC12 NGF-dependent neurite outgrowth; assay type: cell-based; details: 500 pM NGF; for IC50: read-out: IC50 PC12 neurite outgrowth, 72 h, 100 μmol/L to 31.6 nmol/L, n = 3
immobilized TrkA = immobilized TrkA (Homo sapiens, UniProt P04629); experiment: SPR binding to immobilized TrkA
Mouse NGF = Mouse NGF (Mus musculus, UniProt P01139); experiment: SPR binding affinity of analogs to immobilized NGF; details: read-out: KD, binding affinity to immobilized NGF, two-site steady-state analysis, 0.70-200 μmol/L, 25 °C, mean of triplicate
Mouse NGF, sequence (P01139 122-241): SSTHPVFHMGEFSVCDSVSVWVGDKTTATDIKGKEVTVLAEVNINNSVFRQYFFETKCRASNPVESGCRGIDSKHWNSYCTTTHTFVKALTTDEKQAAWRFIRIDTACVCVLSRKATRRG

immobilized TrkA, sequence (P04629 33-796): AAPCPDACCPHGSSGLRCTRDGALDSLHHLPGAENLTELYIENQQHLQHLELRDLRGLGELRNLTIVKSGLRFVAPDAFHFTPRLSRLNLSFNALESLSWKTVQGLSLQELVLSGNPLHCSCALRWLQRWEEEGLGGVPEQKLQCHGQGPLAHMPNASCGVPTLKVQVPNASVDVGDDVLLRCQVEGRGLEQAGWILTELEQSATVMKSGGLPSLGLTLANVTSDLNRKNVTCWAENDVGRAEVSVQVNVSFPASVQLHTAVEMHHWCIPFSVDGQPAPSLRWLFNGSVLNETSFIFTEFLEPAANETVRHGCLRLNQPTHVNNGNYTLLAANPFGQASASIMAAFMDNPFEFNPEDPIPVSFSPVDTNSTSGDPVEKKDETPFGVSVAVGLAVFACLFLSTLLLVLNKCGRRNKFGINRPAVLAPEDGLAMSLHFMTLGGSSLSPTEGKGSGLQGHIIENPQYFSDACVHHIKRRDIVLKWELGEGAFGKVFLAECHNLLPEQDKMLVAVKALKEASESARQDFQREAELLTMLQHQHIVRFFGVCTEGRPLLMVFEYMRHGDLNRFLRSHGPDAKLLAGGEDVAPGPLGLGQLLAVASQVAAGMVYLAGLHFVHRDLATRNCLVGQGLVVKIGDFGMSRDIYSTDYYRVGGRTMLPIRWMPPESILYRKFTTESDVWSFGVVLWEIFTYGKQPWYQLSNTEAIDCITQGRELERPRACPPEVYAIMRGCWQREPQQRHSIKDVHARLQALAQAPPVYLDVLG

## O=C(O)c1ccc(Cl)c(N2C(=O)c3ccc4c(=O)n5c6ccc([N+](=O)[O-])cc6nc5c5ccc(c3c45)C2=O)c1 [BVNP‐0197, 4‐Chloro‐3‐{6‐nitro‐11,16,18‐trioxo‐3,10,17‐triazahexacyclo[13.6.2.0^2,^10.0^4,^9.0^12,^22.0^19,^23]tricosa‐1(21),2,4,6,8,12,14,19,22‐nonaen‐17‐yl}benzoic acid]
PC12 cells
  PC12 cell count and morphology versus control: did not significantly differ from untreated cells
[1]; increasing concentrations 0-100 μmol/L
  NGF-mediated PC12 cell process formation: significantly decreased

## Cn1c2ccc(NC(=O)c3ccccc3)cc2c(=O)n2nc(C(=O)O)cc12 [PD 90780, 7‐(benzolylamino)‐4,9‐dihydro‐4‐methyl‐9‐oxo‐pyrazolo[5,1‐b]quinazoline‐2‐carboxylic acid]
Immobilized TrkA
  binding to immobilized TrkA: none showed binding; also recorded: do not bind to TrkA
Mouse NGF
  Kd: 35.8 µM
[1]
  IC50: 33.2 µM

## Cc1cc2nc3c(=O)[nH]c(=O)nc-3n(C)c2cc1C=O [Ro 08‐2750]
Immobilized TrkA
  binding to immobilized TrkA: none showed binding; also recorded: do not bind to TrkA
Mouse NGF
  Kd: 32.4 µM
[1]
  IC50: 12 µM
